# Test results: patent US20120190615A1, “METHODS AND COMPOSITIONS FOR INDUCING WEIGHT LOSS” (Sanford-Burnham Medical Research Institute, priority 2011, published 2012)
# Tests used:
# C3H10T1/2 cells = assay: Oxygen consumption / uncoupled respiration of cultured mesenchymal stem cells; type: cell-based, mouse
# From the text: To determine whether the increased respiration was uncoupled from ATP synthesis, oligomycin-insensitive respiration was first assayed as a measure of uncoupled respiration. Oligomycin inhibits F1 ATP synthetase to suppress only oxidative phosphorylation-associated respiration.
# HIB1 cells = assay: Differentiation of HIB1 brown preadipocytes (lipid accumulation, mitochondrial biogenesis); type: cell-based; conditions: SB408124 1 uM, OX treatment for 5 days
# Experimental: To further investigate the role of OX in BAT differentiation, the effect of OX on the preadipocyte cell line HIB1 was evaluated. […] Expression of genes functioning in lipid metabolism and mitochondrial biogenesis was elevated while the anti-adipogenic factors […], Pref1, and Wnt10 were expressed at very low levels (FIG. 16).
# HIB1 cells were stably transfected with lentivirus over-expressing orexin (Len-OX) and compared to vector controls in the absence or presence of exogenous OX (100 nM), Cells were cultured for 7 days in the absence of differentiation medium and stained with Oil Red O. By day 6 of adipogenic differentiation, orexin-expressing cells had undergone normal BAT differentiation as scored by lipid accumulation.
# Brown fat morphological defects seen in both adult and newborn OXR1 KO mice were similar to those observed in OX KO mice. […] To examine the cellular and molecular consequences of OXR1 depletion, lentiviral vectors were used to express a short hairpin (sh) shRNA targeting OXR1 (shOXR1; Open Biosystems, Inc., catalog no. RMM4431-98766481) or a scrambled shRNA control (Open Biosystems, Inc., catalog no. RHS4346) in HIB1 mesenchymal cells. […] After 5 days of differentiation, cultures expressing the scrambled shRNA control had undergone brown fat differentiation as scored by Oil Red O staining and shown in FIG. 18. […]
# [1] = tested on: primary brown preadipocytes; assay: Differentiation of primary brown preadipocytes (Oil Red O); type: cell-based, mice; conditions: 3 days BMP7 or 100 nM OX, then adipogenic medium
# From the text: To assess differentiation of primary brown adipocytes, iBAT preadipocytes were isolated from 1-day-old mice and then differentiated in the presence of OX. Differentiation was confirmed by Oil Red O staining which visualizes lipid accumulation (FIG. 7). […] Taken together. OX activates a full program of brown fat adipogenesis by suppressing adipogenic inhibitors, including BAT regulators, elevating mitochondrial biogenesis and oxygen consumption, and inducing uncoupled respiration.
# To investigate whether lack of OXR1 impaired BAT differentiation potential, primary brown preadipocytes from OXR1 knockout mice were isolated and differentiated. Generation of wild-type primary brown preadipocyte cell lines was derived from newborn wild-type mice as described previously by Klein et al. (Bioessays, 24: 382-388, 2002), which is hereby incorporated by reference in its entirety. Brown preadipocytes isolated from C57BL-6 mice served as positive control. All cell lines were maintained in Dulbecco's modified […] medium (DMEM), high glucose, supplemented with 10% FBS at 37° C. in a 5% CO2 environment. To induce adipogenesis, the cells were treated for 3 days with either BMP7 or 100 nM OX, at which time they were confluent. Cells were then incubated in adipogenic medium containing 0.125 mM indomethaein, […] dexamethazone, and […] 3-isobutyl-1-methyxanthine (IBMX) supplemented by 20 nM insulin as described by Tseng et al., (Nature, 454: 1000-1004, 2008) which is hereby incorporated by reference in its entirety.
molecule,measurement,setting,value
"N#CC(C#N)=NNc1ccc(OC(F)(F)F)cc1 [FCCP, reference compound]","oxygen consumption of unstimulated, differentiated cells, increase",C3H10T1/2 cells; in the presence of FCCP,6 fold
"CC[C@H]1/C=C/C=C/C[C@@H](C)[C@H](O)[C@@](C)(O)C(=O)[C@@H](C)[C@H](O)[C@@H](C)C(=O)[C@@H](C)[C@H](O)[C@@H](C)/C=C/C(=O)O[C@@H]2[C@H](C)[C@H](CC1)O[C@]1(CC[C@H](C)[C@H](C[C@@H](C)O)O1)[C@H]2C [oligomycin, reference compound]",respiration of unstimulated differentiated cells,C3H10T1/2 cells; absence of OX,completely suppressed respiration
"Cc1cc(NC(=O)Nc2ccc(N(C)C)cc2)c2cc(F)cc(F)c2n1 [SB408124, reference compound]",OX-dependent mitochondrial biogenesis,HIB1 cells,blunted
"BMP-7: recombinant human BMP-7 (cat. No. 4579, BioVision), a potent inducer of BAT differentiation (protein, UniProt P18075 293-431, looked up) Bone morphogenetic protein 7: STGSKQRSQNRSKTPKNQEALRMANVAENSSSDQRQACKKHELYVSFRDLGWQDWIIAPEGYAAYYCEGECAFPLNSYMNATNHAIVQTLVHFINPETVPKPCCAPTQLNAISVLYFDDSSNVILKKYRNMVVRACGCH",differentiation of wild-type preadipocytes based on lipid accumulation,[1],enhanced differentiation
same,oxygen consumption of treated cells in the presence of oligomycin,C3H10T1/2 cells; oligomycin,efficiently consumed oxygen
